Reference: patent US20050032873A1, “3-Amino chroman and 2-amino tetralin derivatives” (Wyeth, priority 2003, published 2005)
Where two headings read alike, the source gives them in different places.

Assays:
[1] = molecular target: T1, serotonin transporter (Rattus norvegicus, UniProt P31652); assay: 5-HT transporter affinity: displacement of 3H-paroxetine from male rat cortical membranes; format: binding; conditions: displacement of 3H-paroxetine, male rat cortical membranes
T1 construct: displace ^3H-paroxetine from male rat cortical membranes; from tissue; host or cells: male rat cortical membranes
T1 sequence (P31652 whole entry): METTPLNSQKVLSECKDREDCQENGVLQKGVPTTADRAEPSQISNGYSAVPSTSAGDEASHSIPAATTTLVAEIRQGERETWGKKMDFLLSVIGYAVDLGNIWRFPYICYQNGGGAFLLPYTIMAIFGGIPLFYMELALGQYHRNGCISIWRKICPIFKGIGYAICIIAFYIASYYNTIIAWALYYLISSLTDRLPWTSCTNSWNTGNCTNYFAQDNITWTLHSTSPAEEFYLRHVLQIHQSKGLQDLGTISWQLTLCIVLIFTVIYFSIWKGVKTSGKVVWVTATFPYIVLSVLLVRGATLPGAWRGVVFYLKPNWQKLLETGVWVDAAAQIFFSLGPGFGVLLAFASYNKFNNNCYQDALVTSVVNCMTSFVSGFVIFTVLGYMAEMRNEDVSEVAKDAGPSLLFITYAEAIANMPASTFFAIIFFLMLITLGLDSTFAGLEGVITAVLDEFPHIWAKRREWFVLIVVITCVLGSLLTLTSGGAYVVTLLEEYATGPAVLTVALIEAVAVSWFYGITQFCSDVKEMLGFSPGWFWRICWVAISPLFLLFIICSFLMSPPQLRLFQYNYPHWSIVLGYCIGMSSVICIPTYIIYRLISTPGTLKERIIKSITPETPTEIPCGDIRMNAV

[2] = molecular target: T2, cloned human 5-HT1A receptors (Homo sapiens, UniProt P08908); assay: 35S-GTPγS binding assay, 5-HT1A function; format: biochemical; conditions: for EC50: agonist potency; for IC50: antagonist potency, reversal of 8-OH-DPAT
T2 construct: expressed in transfected cells
T2 sequence (P08908 1-422): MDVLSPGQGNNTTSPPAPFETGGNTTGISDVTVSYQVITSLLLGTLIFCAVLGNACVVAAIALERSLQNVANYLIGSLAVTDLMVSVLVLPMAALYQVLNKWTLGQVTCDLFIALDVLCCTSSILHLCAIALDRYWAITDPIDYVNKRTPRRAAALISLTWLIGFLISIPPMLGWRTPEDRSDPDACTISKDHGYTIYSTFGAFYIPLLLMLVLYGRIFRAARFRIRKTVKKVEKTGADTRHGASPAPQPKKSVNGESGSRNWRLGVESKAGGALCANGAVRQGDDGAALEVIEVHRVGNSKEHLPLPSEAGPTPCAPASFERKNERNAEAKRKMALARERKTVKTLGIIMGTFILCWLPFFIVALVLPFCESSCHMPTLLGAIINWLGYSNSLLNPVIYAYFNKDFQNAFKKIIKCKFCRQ
Description: The agonist or antagonist activity at 5-HT1A receptors was established by using two different assays. […] Agonists produce an increase in binding whereas antagonists produce no increase but rather reverse the effects of the standard agonist 8-OH-DPAT. The test compound's maximum stimulatory effect is represented as the Emax, while its potency is defined by the EC50. The test compound's maximum inhibitory effect is represented as the Imax, while its potency is defined by the IC50. The second assay measured cAMP accumulation upon binding of the ligand to the 5-HT1A receptor. […] The test compound's maximum stimulatory or inhibitory effect is represented as the Emax while its potency is defined by either IC50 for an antagonist or EC50 for an agonist. [^3H]-8-OH-DPAT was used to determine maximum agonist or antagonist response in both functional assays.

[3] = molecular target: T3, 5-HT1A receptor (Homo sapiens, UniProt P08908); assay: cAMP accumulation assay, 5-HT1A function; format: cell-based; conditions: for EC50: cells marked EC50 (agonist); for 5-HT1A Function cAMP (Emax) / Emax: in brackets after EC50 or IC50; for Emax: read-out: 5-HT1A Function cAMP (Emax); for IC50: cells marked IC50 (antagonist)
T3 sequence (P08908 1-422): T2 sequence (P08908 1-422)

[4] = molecular target: T3, 5-HT1A receptor; assay: 5-HT1A receptor affinity: displacement of [3H] 8-OH-DPAT; format: binding; parameters: expressed in transfected cells; conditions: displacement of [3H] 8-OH-DPAT, CHO cells stably transfected with human 5-HT1A receptors
[5] = read-out: 5-HT Transporter Affinity Ki
[6] = maximum stimulatory effect, in brackets after EC50, read-out: 5-HT1A Function GTPγS (Emax)
[7] = read-out: 5-HT1A Receptor Affinity Ki
[8] = read-out: 5-HT1A Function GTPγS IC50
[9] = maximum inhibitory effect, in brackets after IC50, read-out: 5-HT1A Function GTPγS (Imax)
[10] = read-out: 5-HT1A Function cAMP IC50
[11] = 5-HT Transporter Affinity Ki (nM)
[12] = 5-HT1A Receptor Affinity Ki (nM)

Row | Structure (SMILES) | Ki [1, 5] | EC50 [2] | Emax [2, 6] | EC50 [3] | 5-HT1A Function cAMP (Emax) [3] | Ki [4, 7] | Emax [3] | IC50 [2, 8] | Emax [2, 9] | IC50 [3, 10] | Ki [1, 11] | IC50 ([2]; 5-HT1A Function GTPγS IC50 (nM)) | IC50 ([3]; 5-HT1A Function cAMP IC50 (nM)) | Ki [4, 12]
1 | CCCN(C(C)CCc1c[nH]c2ccc(F)cc12)C1COc2c(F)ccc(C(N)=O)c2C1 (single isomer, unassigned) [Compound 12b, 8-fluoro-3-[[3-(5-fluoro-1H-indol-3-yl)-1-methylpropyl](propyl)amino]-3,4-dihydro-2H-chromene-5-carboxamide] | 50 nM | 366 nM | 73.5% | 62.6 nM | 78% | 19.4 nM |  |  |  |  |  |  |  | 
2 | COC(=O)c1ccc(F)c2c1CC(NCCCc1c[nH]c3ccc(F)cc13)CO2 (stereo not drawn) [Compound 10, Methyl 8-fluoro-3-{[3-(5-fluoro-1H-indol-3-yl)propyl]amino}chromane-5-carboxylate] | 10.9 nM | 30.5 nM | 85% | 16.3 nM |  | 6.25 nM | 70.5% |  |  |  |  |  |  | 
3 | NC(=O)c1ccc(F)c2c1OCC(N(CCCc1c[nH]c3c(F)cc(F)cc13)CC1CC1)C2 (stereo not drawn) [Compound 130, 3-{(cyclopropylmethyl)[3-(5,7-difluoro-1H-indol-3-yl)propyl]amino}-5-fluorochromane-8-carboxamide] | 166 nM | 788 nM | 39% | 14.8 nM |  | 74.3 nM | 72% |  |  |  |  |  |  | 
4 | CCCN(CCCc1c[nH]c2ccc(F)cc12)C1COc2c(F)ccc(C(N)=O)c2C1 (single isomer, unassigned; (+)) [Compound 2b, (+)-8-fluoro-3-[[3-(5-fluoro-1H-indol-3-yl)propyl](propyl)amino]-3,4-dihydro-2H-chromene-5-carboxamide] | 3.86 nM | 36.3 nM | 80% | 19.9 nM | 97% | 2.21 nM |  |  |  |  |  |  |  | 
5 | NC(=O)c1ccc(F)c2c1CC(N(CCc1c[nH]c3ccc(F)cc13)CC1CC1)CO2 (stereo not drawn) [Compound 78, 3-{(cyclopropylmethyl)[2-(5-fluoro-1H-indol-3-yl)ethyl]amino}-8-fluorochromane-5-carboxamide] | 83 nM |  |  |  |  | 6.6 nM | 0% | 384 nM | 100% | 97.1 nM |  |  |  | 
6 | CCN(CCc1c[nH]c2ccc(F)cc12)C1COc2c(F)ccc(C(N)=O)c2C1 (stereo not drawn) [Compound 76, 3-{ethyl[2-(5-fluoro-1H-indol-3-yl)ethyl]amino}-8-fluorochromane-5-carboxamide] |  |  |  |  |  |  | 0% |  | 68% |  | 52 nM | 470 nM | 68.2 nM | 31.3 nM
7 | CCN(CCCc1c[nH]c2ccc(F)cc12)C1COc2cccc(OC)c2C1 (stereo not drawn) [Compound 31, N-ethyl-N-[3-(5-fluoro-1H-indol-3-yl)propyl]-5-methoxychroman-3-amine] | 2.2 nM | 53.5 nM | 99% | 26.3 nM |  | 2.33 nM | 96% |  |  |  |  |  |  | 
8 | CCCN(CCCCc1coc2c(OC)cccc12)C1COc2c(F)ccc(C(N)=O)c2C1 (stereo not drawn) [Compound 169, 8-fluoro-3-[[4-(7-methoxy-1-benzofuran-3-yl)butyl](propyl)amino]chromane-5-carboxamide] | 528 nM |  |  |  |  | 1.48 nM | 0% | 265 nM | 100% | 11.3 nM |  |  |  | 
9 | CCN(CCc1c[nH]c2ccc(F)cc12)C1CCc2cccc(OC)c2C1 (stereo not drawn) [Compound 49, N-ethyl-N-[2-(5-fluoro-1H-indol-3-yl)ethyl]-N-(8-methoxy-1,2,3,4-tetrahydronaphthalen-2-yl)amine] |  | 15 nM | 88% | 35.5 nM |  |  | 93% |  |  |  | 6.5 nM |  |  | 7.62 nM
10 | NC(=O)c1ccc(F)c2c1CC(N(CCCc1c[nH]c3ccc(Cl)cc13)C1CCC1)CO2 (stereo not drawn) [Compound 117, 3-[[3-(5-chloro-1H-indol-3-yl)propyl](cyclobutyl)amino]-8-fluorochromane-5-carboxamide] | 75.5 nM |  |  |  |  | 3.98 nM | 0% | 735 nM | 100% | 272 nM |  |  |  | 
